Where “and” joins values, the source holds several entries; their conditions need not be identical. Equal values may be shown once. Toxic doses and inconclusive results are not listed.
Test system: L1210 leukemia ip in BDF1 mice, survival T/C
Experiment: NCI In Vivo Anticancer Drug Screen. Data for tumor model L1210 Leukemia (intraperitoneal) in B6D2F1 (BDF1) mice
Settings: endpoint: mean survival time, higher = longer survival
Summary of the method: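 Ratio derived from survival: compound-dosed mice over vehicle-dosed mice, all bearing a transplantable tumor.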

[1] = dose: 100.0 mg/kg/injection, schedule: Q04DX003 (ip), vehicle: saline with Tween-80
[2] = dose: 100.0 mg/kg/injection, schedule: Q01DX009 (ip), vehicle: Klucel (hydroxypropylcellulose) (HPC)
[3] = dose: 200.0 mg/kg/injection, schedule: Q01DX009 (ip), vehicle: Klucel (hydroxypropylcellulose) (HPC)
[4] = dose: 400.0 mg/kg/injection, schedule: Q01DX009 (ip), vehicle: Klucel (hydroxypropylcellulose) (HPC)
[5] = dose: 50.0 mg/kg/injection, schedule: Q01DX009 (ip), vehicle: Klucel (hydroxypropylcellulose) (HPC)
[6] = dose: 75.0 mg/kg/injection, schedule: Q01DX001 (ip), vehicle: saline
[7] = dose: 150.0 mg/kg/injection, schedule: Q01DX001 (ip), vehicle: saline
[8] = dose: 100.0 mg/kg/injection, schedule: Q01DX009 (ip), vehicle: saline with Tween-80
[9] = dose: 100.0 mg/kg/injection, schedule: Q04DX003 (ip), vehicle: Klucel (hydroxypropylcellulose) (HPC)
[10] = dose: 200.0 mg/kg/injection, schedule: Q01DX009 (ip), vehicle: saline with Tween-80
[11] = dose: 200.0 mg/kg/injection, schedule: Q04DX003 (ip), vehicle: Klucel (hydroxypropylcellulose) (HPC)
[12] = dose: 400.0 mg/kg/injection, schedule: Q01DX009 (ip), vehicle: saline with Tween-80
[13] = dose: 100.0 mg/kg/injection, schedule: Q01DX009 (ip), vehicle: saline
[14] = dose: 200.0 mg/kg/injection, schedule: Q01DX009 (ip), vehicle: saline

Q: For CCCCCCCCNC(C)C1=C(O)c2ccccc2C(=O)C1=O (stereo not given), which T/C (dose: 100.0 mg/kg/injection, schedule: Q01DX001 (ip), vehicle: saline with Tween-80) is on record?
A: 89 % of control

Q: What about the T/C (dose: 200.0 mg/kg/injection, schedule: Q01DX001 (ip), vehicle: saline with Tween-80) of the same compound?
A: 86 % of control

Q: And the T/C (dose: 400.0 mg/kg/injection, schedule: Q01DX001 (ip), vehicle: saline with Tween-80)?
A: 86 % of control

Q: Which results are given for S=c1[nH]c2ccc(Cl)cc2[nH]1?
A: T/C (dose: 25.0 mg/kg/injection, schedule: Q04DX003 (ip), vehicle: saline with Tween-80): 100 % of control; T/C (dose: 50.0 mg/kg/injection, schedule: Q04DX003 (ip), vehicle: saline with Tween-80): 98 % of control; T/C [1]: 100 % of control

Q: How did the T/C [2] turn out when Oc1c(Br)cc(Br)c2cccnc12 was run?
A: 100 % of control

Q: And the T/C (dose: 100.0 mg/kg/injection, schedule: Q04DX003 (ip), vehicle: saline)?
A: 98 % of control

Q: And the T/C [3]?
A: 91 % of control

Q: And the T/C (dose: 200.0 mg/kg/injection, schedule: Q04DX003 (ip), vehicle: saline)?
A: 102 % of control

Q: What about the T/C [4] of the same compound?
A: 86 % of control

Q: What about the T/C (dose: 400.0 mg/kg/injection, schedule: Q04DX003 (ip), vehicle: saline) of the same compound?
A: 96 % of control

Q: CN(/C(N)=N/[N+](=O)[O-])c1cccnc1 was tested. Which T/C (dose: 6.0 mg/kg/injection, schedule: Q04DX002 (ip), vehicle: Klucel (hydroxypropylcellulose) (HPC)) did it give?
A: 103 % of control

Q: What about the T/C (dose: 12.0 mg/kg/injection, schedule: Q04DX002 (ip), vehicle: Klucel (hydroxypropylcellulose) (HPC)) of the same compound?
A: 103 % of control

Q: And the T/C (dose: 25.0 mg/kg/injection, schedule: Q04DX002 (ip), vehicle: Klucel (hydroxypropylcellulose) (HPC))?
A: 103 % of control

Q: And the T/C [5]?
A: 103 % of control

Q: And the T/C (dose: 50.0 mg/kg/injection, schedule: Q04DX002 (ip), vehicle: Klucel (hydroxypropylcellulose) (HPC))?
A: 95 % of control

Q: And the T/C [2]?
A: 107 % of control

Q: And the T/C (dose: 100.0 mg/kg/injection, schedule: Q04DX002 (ip), vehicle: Klucel (hydroxypropylcellulose) (HPC))?
A: 91 % of control and 92 % of control

Q: Which T/C (dose: 100.0 mg/kg/injection, schedule: Q04DX002 (ip), vehicle: gum acacia) does the source give for CCOC(=O)Cc1cc(=O)[nH]n(-c2ccccc2)c1=O here?
A: 100 % of control

Q: What about the T/C (dose: 200.0 mg/kg/injection, schedule: Q04DX002 (ip), vehicle: gum acacia) of the same compound?
A: 89 % of control

Q: And the T/C (dose: 400.0 mg/kg/injection, schedule: Q04DX002 (ip), vehicle: gum acacia)?
A: 96 % of control

Q: Which results are given for COc1ccc(CCl)cc1C(=O)O?
A: T/C [6]: 86 % of control; T/C [7]: 91 % of control

Q: With O=C(c1ccc(Br)cc1)C1SC2(C(=O)c3ccc(Br)cc3)SC(C(=O)c3ccc(Br)cc3)C(C(=O)c3ccc(Br)cc3)SC2(C(=O)c2ccc(Br)cc2)SC1C(=O)c1ccc(Br)cc1 (stereo not given) as the compound, how does the T/C [6] read?
A: 100 % of control

Q: And the T/C [7]?
A: 94 % of control

Q: And the T/C (dose: 300.0 mg/kg/injection, schedule: Q01DX001 (ip), vehicle: saline)?
A: 94 % of control

Q: What does the source list for CCCCCCC(O)CCCC (stereo not given)?
A: T/C [8]: 117 % of control; T/C [9]: 91 % of control; T/C [10]: 110 % of control; T/C [11]: 88 % of control; T/C [12]: 122 % of control; T/C (dose: 400.0 mg/kg/injection, schedule: Q04DX003 (ip), vehicle: Klucel (hydroxypropylcellulose) (HPC)): 88 % of control

Q: Which T/C (dose: 100.0 mg/kg/injection, schedule: Q01DX001 (ip), vehicle: saline) does the source give for C=CCOC(=O)Nc1ccc(S(=O)(=O)NC2CCCCC2)cc1 here?
A: 92 % of control

Q: And the T/C (dose: 200.0 mg/kg/injection, schedule: Q01DX001 (ip), vehicle: saline)?
A: 94 % of control

Q: What about the T/C (dose: 400.0 mg/kg/injection, schedule: Q01DX001 (ip), vehicle: saline) of the same compound?
A: 97 % of control

Q: Which results are given for CN(C)CCN=C(N)N[N+](=O)[O-]?
A: T/C (dose: 100.0 mg/kg/injection, schedule: Q04DX002 (ip), vehicle: saline): 110 % of control; T/C (dose: 200.0 mg/kg/injection, schedule: Q04DX002 (ip), vehicle: saline): 96 % of control; T/C (dose: 400.0 mg/kg/injection, schedule: Q04DX002 (ip), vehicle: saline): 100 % of control

Q: For O=C1C(Br)=CC(=C2C=C(Br)C(=O)C(Br)=C2)C=C1Br, which T/C [5] is on record?
A: 104 % of control

Q: And the T/C [2]?
A: 117 % of control

Q: And the T/C [9]?
A: 96 % of control

Q: What about the T/C [3] of the same compound?
A: 104 % of control

Q: And the T/C [11]?
A: 108 % of control

Q: With CCCCCCCCCC(=O)N/N=C/c1cccs1 as the compound, how does the T/C [2] read?
A: 101 % of control

Q: What about the T/C [3] of the same compound?
A: 101 % of control

Q: And the T/C [4]?
A: 89 % of control

Q: With Cn1c(O)c(N=NC(=O)Cc2c[nH]c3ccccc23)c2ccccc21 as the compound, how does the T/C (dose: 100.0 mg/kg/injection, schedule: Q01DX001 (ip), vehicle: other) read?
A: 101 % of control

Q: What about the T/C (dose: 200.0 mg/kg/injection, schedule: Q01DX001 (ip), vehicle: other) of the same compound?
A: 95 % of control

Q: And the T/C (dose: 400.0 mg/kg/injection, schedule: Q01DX001 (ip), vehicle: other)?
A: 95 % of control

Q: What does the source list for NCCNC(=O)c1ccccc1?
A: T/C [13]: 94 % of control; T/C [14]: 100 % of control

Q: What does the source list for OC(Cc1cc(CC(O)(C(F)(F)F)C(F)(F)F)n(-c2ccccc2)n1)(C(F)(F)F)C(F)(F)F?
A: T/C [1]: 97 % of control; T/C (dose: 200.0 mg/kg/injection, schedule: Q04DX003 (ip), vehicle: saline with Tween-80): 97 % of control; T/C (dose: 400.0 mg/kg/injection, schedule: Q04DX003 (ip), vehicle: saline with Tween-80): 95 % of control

Q: How did the T/C (dose: 200.0 mg/kg/injection, schedule: Q01DX001 (ip), vehicle: carboxymethylcellulose (CMC)) turn out when COC1=CC(=O)C2=C(C1=O)C1(C)CCCC(C)(COC(C)=O)C1CC2 (stereo not given) was run?
A: 95 % of control

Q: And the T/C (dose: 400.0 mg/kg/injection, schedule: Q01DX001 (ip), vehicle: carboxymethylcellulose (CMC))?
A: 88 % of control

Q: ClCC[N-]CC[N-]CCCl.ClCC[N-]CC[N-]CCCl.[O-][Cl+3]([O-])([O-])O.[Zn+2] was tested. Which T/C (dose: 5.0 mg/kg/injection, schedule: Q01DX009 (ip), vehicle: Klucel (hydroxypropylcellulose) (HPC)) did it give?
A: 102 % of control

Q: What about the T/C (dose: 5.0 mg/kg/injection, schedule: Q03DX003 (ip), vehicle: saline) of the same compound?
A: 95 % of control

Q: And the T/C (dose: 5.0 mg/kg/injection, schedule: Q## X003 (ip), vehicle: saline)?
A: 95 % of control

Q: And the T/C (dose: 9.0 mg/kg/injection, schedule: Q01DX009 (ip), vehicle: Klucel (hydroxypropylcellulose) (HPC))?
A: 94 % of control

Q: What about the T/C (dose: 10.0 mg/kg/injection, schedule: Q01DX009 (ip), vehicle: Klucel (hydroxypropylcellulose) (HPC)) of the same compound?
A: 97 % of control

Q: What about the T/C (dose: 10.0 mg/kg/injection, schedule: Q03DX003 (ip), vehicle: saline) of the same compound?
A: 104 % of control

Q: And the T/C (dose: 10.0 mg/kg/injection, schedule: Q## X003 (ip), vehicle: saline)?
A: 104 % of control

Q: What about the T/C (dose: 18.0 mg/kg/injection, schedule: Q01DX009 (ip), vehicle: Klucel (hydroxypropylcellulose) (HPC)) of the same compound?
A: 100 % of control

Q: What about the T/C (dose: 20.0 mg/kg/injection, schedule: Q01DX009 (ip), vehicle: Klucel (hydroxypropylcellulose) (HPC)) of the same compound?
A: 116 % of control

Q: What about the T/C (dose: 20.0 mg/kg/injection, schedule: Q03DX003 (ip), vehicle: saline) of the same compound?
A: 121 % of control

Q: And the T/C (dose: 20.0 mg/kg/injection, schedule: Q## X003 (ip), vehicle: saline)?
A: 121 % of control

Q: What about the T/C (dose: 40.0 mg/kg/injection, schedule: Q03DX003 (ip), vehicle: saline) of the same compound?
A: 161 % of control

Q: What about the T/C (dose: 40.0 mg/kg/injection, schedule: Q## X003 (ip), vehicle: saline) of the same compound?
A: 161 % of control

Q: And the T/C (dose: 80.0 mg/kg/injection, schedule: Q03DX003 (ip), vehicle: saline)?
A: 80 % of control

Q: With O=c1cc(CO)occ1O as the compound, how does the T/C [8] read?
A: 93 % of control

Q: What about the T/C [13] of the same compound?
A: 92 % of control

Q: What about the T/C [10] of the same compound?
A: 90 % of control

Q: And the T/C [14]?
A: 106 % of control

Q: What about the T/C [12] of the same compound?
A: 92 % of control

Q: What about the T/C (dose: 400.0 mg/kg/injection, schedule: Q01DX009 (ip), vehicle: saline) of the same compound?
A: 97 % of control

Q: Which T/C (dose: 75.0 mg/kg/injection, schedule: Q04DX003 (ip), vehicle: Klucel (hydroxypropylcellulose) (HPC)) does the source give for CCOC(=O)C1NC(=O)C(C(=O)OCC)C1C(C)C (stereo not given) here?
A: 102 % of control

Q: What about the T/C (dose: 100.0 mg/kg/injection, schedule: Q01DX001 (ip), vehicle: Klucel (hydroxypropylcellulose) (HPC)) of the same compound?
A: 103 % of control

Q: And the T/C (dose: 150.0 mg/kg/injection, schedule: Q04DX003 (ip), vehicle: Klucel (hydroxypropylcellulose) (HPC))?
A: 98 % of control

Q: And the T/C (dose: 200.0 mg/kg/injection, schedule: Q01DX001 (ip), vehicle: Klucel (hydroxypropylcellulose) (HPC))?
A: 103 % of control

Q: What about the T/C (dose: 300.0 mg/kg/injection, schedule: Q04DX003 (ip), vehicle: Klucel (hydroxypropylcellulose) (HPC)) of the same compound?
A: 100 % of control

Q: What about the T/C (dose: 400.0 mg/kg/injection, schedule: Q01DX001 (ip), vehicle: Klucel (hydroxypropylcellulose) (HPC)) of the same compound?
A: 109 % of control

Q: How did the T/C [6] turn out when C/C=C(\C)C1(CC)C(=O)NC(=O)N(C)C1=O (stereo not given) was run?
A: 93 % of control

Q: And the T/C [7]?
A: 97 % of control

Source: PubChem BioAssay AID248 (DTP/NCI, 2004)
